For the assay, the system named is panel of 468 kinases. The experiment in a line: KINOMEscan kinase panel selectivity score. The assay is classed as binding. The text has this: Compounds of the invention may have the advantage that they are effective inhibitors of protein kinases (e.g. CDK8 and/or haspin). […] For instance, the compounds of the invention may be selective inhibitors of certain protein or lipid kinases. […] Compounds that are selective inhibitors may be identified by screening in a 453-468 kinases panel (KINOMEscan™ from DiscoveRx). For example, selective inhibitors may show a selectivity score of S(20)<0.05.
Selectivity Score (or S-score) is a quantitative measure of a compound's selectivity. It is calculated by dividing the number of kinases to which a compound binds by the total number of distinct kinases tested (i.e. S=Number of hits/Number of assays).

On to `CCn1c(C(N)=O)cc2c1-c1ccncc1OC2(C)C` [Example 43], for which the “Selectivity score S(20)” value came to 0.038.

The record behind these values is US10208056B2, “Condensed tricyclic compounds as protein kinase inhibitors” (FUNDACIÓN DEL SECTOR PÚBLICO ESTATAL CENTRO NACIONAL DE …, priority 2015, dated 2019).
